Measurements from patent US8173696B2, “Inhibitors of cysteine proteases and methods of use thereof” (Baylor University, priority 2007, dated 2012).

Key:
[1] = molecular target: T1, Human liver cathepsin L (Homo sapiens, UniProt P07711); experiment: Cathepsin L inhibition in vitro (Z-FR-AMC fluorescence); assay type: biochemical; details: Table A; 1 nM human liver cathepsin L, pH 5.5, 25° C., 50 μM Z-FR-AMC; read-out: Cat L IC50
T1 construct: from tissue; host or cells: human liver
Procedure: Human liver cathepsin L (1 nM) was incubated in 50 mM sodium acetate buffer, pH 5.5 containing 1 mM EDTA, 2 mM DTT, 0.001% (v/v) brij 35 with potential inhibitors at 20 different concentrations (from 0.05 nM to 50 μM) at 25° C. for 5 minutes before 100 μL substrate (benzyloxycarbonyl-L-phenylalanyl-L-arginyl-7-amido-4-methylcoumarin, abbreviated as Z-FR-AMC, 50 μM in final assay condition) was added to the enzyme-inhibitor mixture; total volume was 200 μL. Controls were performed using enzyme alone, substrate alone, and enzyme with DMSO. […] Spectra were taken at 3-sec intervals for 3 minutes. IC50 values were determined by non-linear regression analysis using vo(inh)=VMAX/{1+10(logIC50−x)*Hillslope} and Prism software (GraphPad).

[2] = molecular target: Cat B (Homo sapiens, UniProt P07858); experiment: Cathepsin B inhibition in vitro; assay type: biochemical; details: Table A; read-out: Cat B IC50
Procedure: For in vitro cysteine protease inhibition determinations, a compound's effectiveness can be given by an IC50 value. In these assays, the enzyme to be inhibited (e.g., a cruzain or cruzipain, a rhodesain, a brucipain, a congopain, a falcipain, CPB2.8 Delta CTE, a cathepsin-L, cathepsin-B, a cathepsin-H, a cathepsin-K, a cathepsin-S) is first incubated with varying concentrations (about 20-50,000 nM) of a test compound. To this is added a short peptide substrate of the enzyme of 1 to 10 amino acids, usually a di- or tri-peptide substrate, which is labeled with either a fluorogenic or chromogenic moiety. An exemplary chromogenic moiety is p-nitro-anilide (pNA). […] Exemplary peptide substrates include Phe-Arg, Arg-Arg, Phe-Arg-X (X=Ala, Arg), and Phe-X-Ser-Arg-Gln (X=Arg, 4-aminomethyl-phenylalanine (Arm), 4-aminomethyl-N-isopropyl-phenylalanin-e (laf), 4-piperidinyl-alanine (Ppa) or 4-aminocyclohexyl-alanine (Aca)). Cleavage of the labeled substrate induces a chromogenic or fluorescent signal that is measured using spectrophotometer or a spectrofluorometer, respectively. Signals induced in the presence of varying concentrations of test compound are measured in comparison to a positive control of enzyme and substrate and a negative control of enzyme in diluent (e.g., DMSO). Spontaneous cleavage of substrate is measured in controls with substrate alone. IC50 values are determined graphically using compound inhibitor concentrations in the linear portion of a plot of inhibition versus log [I].

[3] = tested on: cathepsin L; experiment: Inhibition of activated cathepsin L secreted in DU-145 cell conditioned media; assay type: cell-based; details: compound 20 μM, replicate samples a-c
Procedure: (§1) A prostrate carcinoma derived cell line (DU-145) was maintained in free phenol red DMEM supplemented with 10% fetal bovine serum, 1% glutamine, 1% glutamax, 1% Penicillin-Streptomycin and 1 mM sodium pyruvate, at 37° C. in an atmosphere of 95% air/5% CO2. DU145 was plated at 4×10^6 cells/10 cm Petri dish for dense, super confluent density. These cultures were incubated for 3 days before collection. Twenty-four hours prior to harvesting, cells were fed with serum-free media or serum-free media containing inhibitors at a final concentration of 20 μM. On the day of harvesting, the serum-free medium was collected for assay of Cathepsin L activity secreted in the medium. The cells were rinsed in cold PBS (pH 7.2) and collected in cold PBS containing […]. The cells were lysed using a Sonicator (Misonix 3000) at medium setting with pauses at 0° C. for temperature equilibration. Then the homogenate was centrifuged at 13,000×g for 20 min and the supernatant saved. […] Fluorescence was measured in a Fluoro Max 2 (Jobin Yvon) spectrofluorometer at an excitation wavelength of 355 nm and an emission wavelength of 460 nm. The substrate is hydrolyzed by cathepsin L and to a smaller extent by cathepsin B, therefore the activity is referred to as cathepsin L+B activity. Data analysis was performed using Prism software (GraphPad version 4). Data corresponding to cathepsin L activity (after activation) in cell conditioned media in the presence of Compound 14 (20 μM) is summarized in Table 3 below. Data corresponding to cathepsin L activity (after activation) in cell conditioned media in the presence of Compound 27 (20 μM) is summarized in Table 4 below.

[4] = molecular target: Cruzain (Trypanosoma cruzi, UniProt P25779); experiment: biochemical; assay type: biochemical; details: Table A; 0.1 nM cruzain, pH 5.50, 25° C., 10 μM Z-Phe-Arg-AMC
Sequence of Cruzain (P25779 123-467): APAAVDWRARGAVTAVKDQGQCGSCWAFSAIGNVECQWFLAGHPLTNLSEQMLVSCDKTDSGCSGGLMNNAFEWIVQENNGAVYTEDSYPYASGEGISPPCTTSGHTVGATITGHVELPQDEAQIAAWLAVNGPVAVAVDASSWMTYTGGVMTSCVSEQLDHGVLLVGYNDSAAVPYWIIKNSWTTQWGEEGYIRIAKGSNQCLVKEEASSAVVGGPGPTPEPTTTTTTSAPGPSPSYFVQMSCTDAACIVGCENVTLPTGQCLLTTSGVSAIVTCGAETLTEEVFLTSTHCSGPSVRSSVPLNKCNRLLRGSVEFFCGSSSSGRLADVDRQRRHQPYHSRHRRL
Procedure: Cruzain (0.1 nM) in 100 mM sodium acetate buffer (pH 5.50) containing 5 mM DTT was preincubated for 5 min at 25° C. with inhibitor.

[5] = tested on: cathepsin L; experiment: Inhibition of activated cathepsin L in DU-145 cell lysates; assay type: cell-based; details: DU-145 cell lysates preincubated for 24 h with compound, following removal of media, replicate samples a-c; for activity (cathepsin L activity after activation): control 6.93E−03; for cps (cathepsin L activity after activation): control 26950
Procedure: as §1, with “cell lysates preincubated for 24 h with” for “cell conditioned media in the presence of”, “14 and following the removal of media” for “14 (20 μM)”, “Table 5” for “Table 3”, “27 and following the removal of media” for “27 (20 μM)”, “Table 6” for “Table 4”

T1 sequence (P07711 114-333): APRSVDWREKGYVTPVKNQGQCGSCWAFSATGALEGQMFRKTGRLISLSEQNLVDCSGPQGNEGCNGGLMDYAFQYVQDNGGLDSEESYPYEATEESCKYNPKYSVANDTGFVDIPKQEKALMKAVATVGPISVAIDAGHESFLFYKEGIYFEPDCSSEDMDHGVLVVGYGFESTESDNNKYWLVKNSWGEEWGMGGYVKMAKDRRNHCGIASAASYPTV

NC(=S)NN=C(c1cccc(Br)c1)c1cccc(Br)c1 [Compound 14, Bis(3-bromophenyl) ketone thiosemicarbazone]
IC50 [1]: 1.5 nM | IC50 [2]: > 3000 nM | activity (cathepsin L activity after activation) ([3]; control 1.50E−03, listed as 14a): 0.000186 µM/s | activity (cathepsin L activity after activation) ([3]; control 1.50E−03, listed as 14b): 0.000165 µM/s | activity (cathepsin L activity after activation) ([3]; control 1.50E−03, listed as 14c): 0.000127 µM/s | cps (cathepsin L activity after activation) ([3]; control 5848, listed as 14a): 722.5 cps | cps (cathepsin L activity after activation) ([3]; control 5848, listed as 14b): 641.2 cps | cps (cathepsin L activity after activation) ([3]; control 5848, listed as 14c): 495 cps | IC50 [4]: 24 nM | activity (cathepsin L activity after activation) ([5]; listed as 14a): 0.00161 µM/s | activity (cathepsin L activity after activation) ([5]; listed as 14b): 0.00144 µM/s | activity (cathepsin L activity after activation) ([5]; listed as 14c): 0.00129 µM/s | cps (cathepsin L activity after activation) ([5]; listed as 14a): 6259 cps | cps (cathepsin L activity after activation) ([5]; listed as 14b): 5608 cps | cps (cathepsin L activity after activation) ([5]; listed as 14c): 5003 cps
